Consider six molecules from patent US9290528B1, “Light-activated compounds” (University of Kentucky Research Foundation, priority 2013, dated 2016).

Several values for one entry are separate records, joined by “and”; a condition that tells them apart may be missing. Identical values can stand only once. Like-named read-outs stand apart in the source and are kept apart here. Where only a bound is given, the exact number is not on record here.

The subject of data set [1] is HL60 promyelocytic leukemia cell line. Briefly: Cell survival assay, HL60. As to conditions: for Phototoxicity Index, PI HL60: ratio of dark and light IC50. It counts as cell-based. The method, then:
(§1) The HL60 promyelocytic leukemia cell line was obtained from ATCC and cultured in IMDM media (Invitrogen; Carlsbad, Calif.) supplemented with 10% serum supreme (Lonza; Basel, Switzerland) and penicillin/streptomycin at 37° C. with 5% CO2. The A549 cell line was donated and cultured in DMEM supplemented with glutamax, 10% serum supreme, and penicillin/streptomycin at 37° C. with 5% CO2. Cells were plated in Optimem (Life Technologies; Carlsbad, Calif.) supplemented with 1% serum supreme and penicillin/streptomycin at 30,000 cells per well in Costar 96 well flat bottom clear tissue culture treated plates for HL60 and 1500 cells/well for A549. […] The cells were then incubated for 72 hours followed by the addition of Cell Titer Glo (Promega; Madison, Wis.) to determine viability. Dark controls were run in parallel. The resulting luminescence was measured using the SpectraFluor Plus Plate Reader (Tecan). Data were fit to an equation for a sigmoidal dose response using the equation below, where yi and yf are the initial and final signal intensities.
(§2) Cell cytotoxicity studies were performed in HL60 leukemia cells and A549 lung cancer cells (see FIG. 7 and Table 3). Cells were incubated with compounds for 12 hours in the dark before irradiated with >450 nm light (410 W) for 3 minutes. Dark controls were run in parallel. Cell survival was quantified 72 hours later through the use of an ATP luciferase assay, and confirmed by Trypan Blue staining and manual counting.

In a further data set the test system is A549 lung cancer cells. Briefly: Cell survival assay, A549 monolayer. Format: cell-based. As to conditions: for Phototoxicity Index, PI A549: ratio of dark and light IC50. The method, then: as §1, §2
A further data set concerns A549 tumor spheroids. Briefly: A549 tumor spheroid cytotoxicity. Format: cell-based. As to conditions: for MCR Index: ratio of spheroid and monolayer culture IC50. The procedure:
A549 cells were seeded at 2,500 cells/well in 1.5% agarose coated 96-well plates. After 7 days the spheroids were dosed with compounds and incubated for 12 hrs. […] Cellular viability was determined 72 hours after light activation for the irradiated samples and at the same time point for the dark samples by measuring ATP concentration with CellTiter Glo (Promega). Data were fit to an equation for sigmoidal dose response shown above using the Prism software package.
3D tumor spheroids were used to test the compounds. Spheroids provide a system that approximates the complexity of in vivo tumors. These spheroids mimic the pathophysiology of tumors, including hypoxic/necrotic regions, changes in cell shape, high proportions of quiescent cells, alterations in gene expression profiles, and diminished permeability to drugs. […] To characterize the light-activated ruthenium compounds under more challenging and biologically relevant conditions, efficacy was assessed in a 3D tumor model by forming tumor spheroids with A549 cells.
Spheroids of about 600 μm in diameter were dosed with compounds and then either kept in the dark or irradiated with >450 nm light for 3 minutes.

For data set [2], the system named is HL-60 human leukemia cell line. Briefly: Cytotoxicity in HL-60 cells, dark and irradiated (Example 1). Format: cell-based. The method, then:
Cytotoxicity studies were performed to determine if the light-induced DNA damage translated to biological activity in cancer cells. […] The compounds were incubated with the cells for 12 hours prior to irradiation with blue (>400 nm), red (>600 nm), and near-IR (>650 nm) light (Table 2). […] Increasing the light dose increased the observed potency. […] A phototoxicity index (PI) value (the toxicity in the dark vs. the light) of 43 was found with blue light for compound 1.

The test system of data set [3] is pUC19 plasmid. Briefly: Glutathione assay: pUC19 crosslinking with increasing GSH. It counts as biochemical. As to conditions: 30 μM compound, 0.01-40 mM GSH; 4 light-activated. The procedure:
The concentrations of GSH were 0.01, 0.1, 1, 10, 40 mM, giving a molar ratio between the compounds and glutathione of a) 1:0.3, b) 1:3.3, c) 1:33, d) 1:333, e) 1:1333. […] Control reactions with pUC19 in the presence and absence of GSH were carried out for 12 hrs in the dark with 25 μg/ml plasmid and 40 mM GSH in 10 mM phosphate buffer, pH 7.5. The plasmid was resolved on a 1% agarose gel as described above.
(§3) The photoactivated DNA crosslinking Ru(bpy)2 species retained its ability to damage DNA, even at higher GSH concentrations.

For data set [4], the system named is HL60 leukemia cells and A549 lung cancer cells. In words: Cell cytotoxicity studies, summary over HL60 and A549. Format: cell-based. The note with it: for activity light versus dark: >450 nm light 3 minutes vs dark. The procedure:
as §1, §2

The subject of data set [5] is HL60 cells. Briefly: Western blot of PARP and caspase 3 cleavage. The note with it: protected from light and irradiated. It counts as cell-based, human. The method, then: Given the different cellular localization properties and time profiles for cell death induced by 9 and 10, the mechanism of cell death was investigated. Indicators of apoptotic cell death (activation of PARP and caspase 3 through proteolysis) were determined in HL60 cells treated with either 9 or 10 (FIGS. 15A and 15B).
The generation of an alternate 55 kDa PARP fragment was determined by immunoblot as a marker for necrosis with 10% (v/v) ethanol used as a control that induces necrosis.
A general note: Immunoblotting shows a protein as a band on a membrane.

For data set [6], the system named is HL60 cells. Briefly: Genomic DNA laddering by gel electrophoresis. It counts as cell-based, human. The note with it: dark / not irradiated. From the text: To further analyze the mechanisms of cell death induced by 9 and 10, the degradation pattern of genomic DNA was investigated. DNA laddering was observed as a result of DNA fragmentation stemming from the execution phase of apoptosis. In contrast, necrotic cell death lacked this characteristic laddering effect, allowing differentiation between these two mechanisms. […] This laddering was absent in the cells treated with ethanol and compounds 9 and 10 in the dark. […] In contrast, given the cytotoxicity of 9 in the dark and the presence of the 55 kDa PARP fragment, it appears that necrotic cell death is one pathway for […]. For compound 10 the absence of DNA laddering may be a result of the lack of cytotoxicity of the negatively charged compound.

Data set [7] in a line: Light and dark cytotoxicity of exemplary compounds (Table 6). It counts as cell-based. The note with it: for IC50: cell line not stated. From the text: This Example describes additional specific embodiments the presently-disclosed subject matter. […] The methods for making and characterizing the compounds are based on the methodologies described in the previous examples.

The test system of data set [8] is pUC19 plasmid. Briefly: Plasmid-compound gel analysis (Example 2). The note with it: visible light 200 W, 1 hour.
Description: Plasmid-compound gel analysis: Plasmid pUC19 was obtained from Bio-Rad (Hercules, Calif.), transformed into DH5a cells and positive transformants were selected by colony formation on Ampicillin LB-Agar plates. Colonies were grown in LB and plasmid isolated using a Maxi-prep plasmid isolation kit (Qiagen; Velno, Netherlands). Plasmid amounts were quantified by UV/VIS. For dosing studies, 40 μg/ml of plasmid was incubated with compound dosed from 0 to 500 μM in 96 well plates. They were incubated for 30 min prior to light activation for 1 hour using a Dell 1410x 200 W projector fitted with a >450 nm cut-off filter. Dark controls were performed by keeping the DNA:compound mixtures in the dark. The samples were incubated overnight after light activation before gel analysis; the dark samples were also incubated for the same time period. Linear plasmid and relaxed circle plasmid were generated and run side-by-side with compound treated samples. Linear plasmid was generated using the EcoRI restriction enzyme (New England BioLabs; Ipswich, Mass.) following the manufacturers protocol. Single cut, relaxed circle, plasmid was generated using the copper phenanthroline reaction. Reaction was carried out in 10 mM phosphate buffer pH 7.5, with 40 μg/ml plasmid, 1 mM DTT, 1 mM hydrogen peroxide, and 5 μM copper phenanthroline for 30 min at 25° C. The addition of DTT reduced the copper phenanthroline to the +1 charge state, followed by reaction with peroxide created the damage to the DNA. Samples were resolved on a 1% non-EB (ethidium bromide) agarose gel followed by 40 minutes of staining with 0.5 μg/ml EB in Tris-Acetate buffer followed by 40 minutes of destaining in Tris-Acetate before imaging.
The nature of data set [9]: Interaction of prodrug compounds with GSH by UV/Vis spectroscopy. Format: physicochemical. As to conditions: period of days.
Text: as §3

A further data set has as its target CT DNA. In words: DNA binding affinity (Kb) with CT DNA. The note with it: racemic mixtures. Details: species or system calf. From the text:
Intercalation of both complexes was consistent with the reduced mobility of supercoiled plasmid DNA in agarose gels, and the modulation of the absorption spectra in the presence of DNA, characterized by hypochromism of both the π-π* of the dppz ligand and the MLCT transitions, with maximal effect at a ratio of 2:1 DNA base pairs to metal center. Thus, the strained complex retained DNA-sensing capabilities of other Ru^II “light-switch” molecules and photochemical reactivity.

The mark [10] stands for this setting: 3 min >450 nm light, 72 hours, read-out: Light IC50 HL60.
Where [11] appears, read: 3 min >450 nm light, 72 hours, read-out: Light IC50 A549.
Setting [12] is: dark, read-out: Dark IC50 A549 spheroid.
Setting [13] is: 3 min >450 nm light, 72 hours, read-out: Light IC50 A549 spheroid.

In general, IC50 refers to the concentration that inhibits the measured activity by half. Take `Cl.NCC(=O)CCC(=O)O` [ALA, 5-aminolevulinic acid hydrochloride, reference compound]: the IC50 is 16.2 µM in [1] (Homo sapiens, HL-60, 3 min >450 nm light, 72 hours, read-out: Light IC50 HL60); over 300 µM in data set [1] (Homo sapiens, HL-60, read-out: Dark IC50 HL60); 21 µM with A549 lung cancer cells (Homo sapiens, A549, 3 min >450 nm light, 72 hours, read-out: Light IC50 A549); 87.8 µM with A549 lung cancer cells (Homo sapiens, A549, read-out: Dark IC50 A549); over 300 µM in the data set on A549 tumor spheroids (Homo sapiens, A549, 3 min >450 nm light, 72 hours, read-out: Light IC50 A549 spheroid); over 300 µM with A549 tumor spheroids (Homo sapiens, A549, read-out: Dark IC50 A549 spheroid). Further, the “Phototoxicity Index, PI HL60” value in data set [1] was over 18. The “Phototoxicity Index, PI A549” value in the data set on A549 lung cancer cells came out at 4.2. In addition, the “Light IC50 A549 spheroid” value in the data set with A549 tumor spheroids (3 min >450 nm light, 72 hours) is “had no effect”. In the data set on A549 tumor spheroids, the “MCR Index” value was over 14.
As to `N.N.[Cl][Pt][Cl]` [Cisplatin, reference compound], the IC50 in data set [2] (HL-60, dark, read-out: IC50 Dark) turned out to be 3.1 µM; in data set [2] (HL-60, light condition not given, read-out: IC50), 3.1 µM; in [2] (read-out: IC50 Blue (3 min), HL-60, 12 hours incubation, blue (>400 nm) light 3 min), 3.1 µM; in data set [1] (setting [10]), 3.1 µM; in [1] (dark, read-out: Dark IC50 HL60), 3.1 µM; with A549 lung cancer cells (setting [11]), 3.4 µM. Also, the IC50 turned out to be 3.5 µM with A549 lung cancer cells (dark, read-out: Dark IC50 A549); 42 µM with A549 tumor spheroids (setting [12]); 3.1 µM in data set [7] (read-out: Dark IC50); 3.1 µM in [7] (read-out: Light IC50). In addition, the “plasmid DNA crosslinking in presence of increasing GSH” value in the data set on pUC19 plasmid [3] is listed as “reduced crosslinking efficacy”. In addition, the “activity light versus dark” value in data set [4] is “same activity under light and dark conditions”. Besides, the “55 kDa PARP fragment (marker for necrosis)” value with HL60 cells [5] is reported as “also produced this cleavage product”. Further, the “genomic DNA laddering” value with HL60 cells [6] is “initiated DNA fragmentation resulting in a laddering pattern”.
For the molecule `[Ru+2].c1ccc(-c2ccccn2)nc1.c1ccc(-c2ccccn2)nc1.c1cnc2c(c1)ccc1cccnc12` [Compound 3, Ru(bpy)2phen], the IC50 in [1] (setting [10]) was 81 µM; in [1] (dark, read-out: Dark IC50 HL60) it was 240 µM; with A549 lung cancer cells (setting [11]), 40 µM; with A549 lung cancer cells (dark, read-out: Dark IC50 A549), 250 µM; in the data set with A549 tumor spheroids (setting [13]) it was over 300 µM; in the data set with A549 tumor spheroids (setting [12]), over 300 µM. Besides, the “Phototoxicity Index, PI HL60” value in [1] is 3. The “Phototoxicity Index, PI A549” value with A549 lung cancer cells came to 6.3. The “MCR Index” value in the data set on A549 tumor spheroids is recorded as over 7.5. Further, in the data set with pUC19 plasmid [8], the “type of DNA damage upon visible light” value is listed as “DNA photocleavage”.
In the case of `Cc1ccc2c3nccnc3c3ccc(C)nc3c2n1.F[P-](F)(F)(F)(F)F.F[P-](F)(F)(F)(F)F.[Ru+2].c1ccc(-c2ccccn2)nc1.c1ccc(-c2ccccn2)nc1` [Compound 5, Ru(bpy)2dmdpq], the “interaction with GSH” value in data set [9] was “did not interact with GSH”. Besides, the IC50 in data set [1] (setting [10]) is 2.6 µM; in [1] (dark, read-out: Dark IC50 HL60), 108 µM; with A549 lung cancer cells (setting [11]) it was 1.2 µM; with A549 lung cancer cells (dark, read-out: Dark IC50 A549), 250 µM; with A549 tumor spheroids (setting [13]), 64 µM and 64.6 µM; in the data set with A549 tumor spheroids (setting [12]), over 300 µM. Besides, the figures for the IC50 in data set [4] (dark), in data set [7] (read-out: Dark IC50) and in data set [7] (read-out: Light IC50) were over 100 µM, 250 µM and 0.6 µM, respectively. Also, in data set [1], the “Phototoxicity Index, PI HL60” value is reported as 216. The “Phototoxicity Index, PI A549” value with A549 lung cancer cells is on record as 208. In addition, in the data set with A549 tumor spheroids, the “MCR Index” value came to 54. In addition, the “activity light versus dark” value in data set [4] is given as “light-triggered toxicity”. Besides, the “IC50 values after irradiation” value in data set [4] (after irradiation) was “single μM IC50 values”. Moreover, in data set [7] (dark IC50/light IC50), the “Phototoxicity Index” value is 400. Moreover, in the data set with pUC19 plasmid [8], the “type of DNA damage upon visible light” value is “combination of these two mechanisms”.
On to `COc1cccc2c1C(=O)c1c(O)c3c(c(O)c1C2=O)C[C@@](O)(C(=O)CO)C[C@@H]3O[C@H]1C[C@H](N)[C@H](O)[C@H](C)O1` [doxorubicin, reference compound], for which, in the data set with HL60 cells [5], the “55 kDa PARP fragment (marker for necrosis)” value is reported as “also produced this cleavage product”.
As for “Ru(bpy)2dppz [Compound 7, reference compound]”, the Kb at CT DNA is 1e+07 M⁻¹.
